From patent US20080138463A1, “Lactobacillus buchneri strain LN5689 and its use to improve aerobic stability of silage” (Pioneer Hi-Bred International, Inc., priority 2006, published 2008)

Assays:
[1] = Aerobic stability of grass silage (method of Honig); parameters: species or system ryegrass
Protocol: Second cut ryegrass was harvested at PLNC. The grass was determined to have an approximate dry matter of 35%.
Inoculation: Individual strains were supplied as fresh grown overnight culture. Cultures were adjusted to a standard concentration of 5.0×10^7 CFU/mL and applied using a syringe at a rate of 2.2 mL/kg of forage. The application rate for all strains was 1.1×10^5 CFU/g forage. Propionic acid (88%) was applied at a rate of 4.4 mL/kg fresh forage.
PVC Silos: PVC silos were filled at a packing density of 0.288 kg DM/silo (100 kg DM/m^3); approximately 0.82-0.95 kg/silo. Silos were air infused for 24 hours on days 28 and 42, and opened after 50-60 days of ensiling.
Aerobic Stability: The method of Honig (Proc. Of the Eurobac. Conf., P. Lingvall and S. Lindgren (ed.) (12-16 Aug. 1986) Swed. Univ. of Agric. Sci. Grass and Forage Report No. 3-1990. Pp. 76-81. Uppsala, Sweden.) was used for measuring aerobic stability (see Table 1). ROT is defined as the time, in hours, for the silage to heat 1.7° C. after exposure to air. Cumm_DD is the integral value of the area between the time ROT is attained and the end of the experiment. Aerobic dry matter loss (% dry matter) was determined relating the increase in temperature and the time to energy losses occurring in the silage.

[2] = pH of grass silage after ensiling; format: physicochemical, ryegrass; conditions: for pH: PVC silos
Protocol: Second cut ryegrass was harvested at PLNC. The grass was determined to have an approximate dry matter of 35%. Inoculation: Individual strains were supplied as fresh grown overnight culture. Cultures were adjusted to a standard concentration of 5.0×10^7 CFU/mL and applied using a syringe at a rate of 2.2 mL/kg of forage. The application rate for all strains was 1.1×10^5 CFU/g forage. Propionic acid (88%) was applied at a rate of 4.4 mL/kg fresh forage. PVC Silos: PVC silos were filled at a packing density of 0.288 kg DM/silo (100 kg DM/m^3); approximately 0.82-0.95 kg/silo. Silos were air infused for 24 hours on days 28 and 42, and opened after 50-60 days of ensiling.

[3] = average across replicate studies A, B, C

Improvement of aerobic stability over the control ([1]; LN5689 1.1×10^5 CFU/g forage, propionic acid (88%) 4.4 mL/kg): 96 h | pH ([2]; replicate study A): 4.03 | pH ([2]; replicate study B): 4.17 | pH ([2]; replicate study C): 4.18 | pH Avg. [2, 3]: 4.13
SMILES: CCC(=O)O [Propionic Acid, Propionic acid]
Aerobic deterioration compared with control grass silages [1]: significantly less aerobic deterioration than the control | Aerobic Dry Matter Loss Avg. [1, 3]: 0.43 % dry matter | ROT Avg. [1, 3]: 127 h | Aerobic Dry Matter Loss ([1]; replicate study A): 0.29 % dry matter | ROT (time for the silage to heat 1.7° C. after exposure to air) ([1]; replicate study A): 137 h | Aerobic Dry Matter Loss ([1]; replicate study B): 0 % dry matter | ROT (time for the silage to heat 1.7° C. after exposure to air) ([1]; replicate study B): 160 h | Aerobic Dry Matter Loss ([1]; replicate study C): 1.01 % dry matter | ROT (time for the silage to heat 1.7° C. after exposure to air) ([1]; replicate study C): 86 h
